US20120309838A1, “USE OF AGOMELATINE IN OBTAINING MEDICAMENTS INTENDED FOR THE TREATMENT OF OBSESSIVE-COMPULSIVE DISORDER (OCD)” (Les Laboratoires Servier, priority 2010, published 2012)
Entries after “also recorded” stand apart in the source; their conditions may differ.

Experiments:
[1] = test system: Male mice of the NMRI strain; test: Spontaneous marble burying in mice (model of Obsessive-Compulsive Disorder); type: in vivo; conditions: for number of marbles buried: injected 30 minutes before test, 30 minutes' exploration, 24 marbles, carrier 20.2±0.6
Experimental: Pre-clinical studies were carried out using a model of Obsessive-Compulsive Disorder (OCD), confirming the potential of agomelatine for treatment of this pathology. […] The study was carried out as follows. Male mice of the NMRI strain (Iffa-Credo, L'Arbresle, France), weighing 20-25 g on the day of the experiment, were placed individually in Macrolon boxes (30×18×19 cm) containing 5 cm of sawdust and covered with a perforated plexiglass plate. Twenty-four “cat's eye” glass marbles were evenly distributed on the sawdust at the periphery of the box. At the end of 30 minutes' free exploration, the animals were removed from the box and the number of buried marbles was counted. Agomelatine or the carrier (control) was injected 30 minutes before the start of the test.

[2] = test system: out-patients having a primary diagnosis of Obsessive-Compulsive Disorder; test: Double-blind placebo-controlled clinical study in out-patients with Obsessive-Compulsive Disorder; type: in vivo, human; conditions: 25 mg, 16 weeks of treatment
Experimental: A clinical study comparing agomelatine with placebo was carried out in 80 out-patients more than 18 and less than 65 years in age, having a primary diagnosis of Obsessive-Compulsive Disorder according to the criteria of DSM-IV-TR. The patients must have, on entry into the study, a score of 20 or more on the Y-BOCS scale (Yale Brown Obsessive Compulsive Scale) and have been previously treated for their Obsessive-Compulsive Disorder with a serotonin reuptake inhibitor (SRI). The patients must have a depression severity score of less than 24 on the MADRS depression scale.
The study is a double-blind placebo-controlled study for a duration of treatment of 16 weeks. The patients are randomised either into the placebo group or into the 25 mg agomelatine group with the possibility of increasing the dose of agomelatine to 50 mg in the event of failure to respond after 8 weeks of treatment (criterion for failure to respond: less than 20% reduction in the total Y-BOCS score).
The main criterion for the assessment of efficacy is the reduction in the total score on the Y-BOCS scale. […] The presence of depressive symptoms and their course over time are analysed by the MADRS depression scale at the start of treatment and after 16 weeks of treatment. […]

[3] = test system: patients; test: Tolerability observed in clinical trials on close to 3900 patients; type: in vivo, human
From the text: Amongst those effects, the discontinuation syndrome observed on stopping treatment with the customary psychotropic agents is absent in the case of agomelatine, which makes it a treatment of choice in this indication.

COc1ccc2cccc(CCNC(C)=O)c2c1 [Agomelatine, N-[2-(7-methoxy-1-naphthyl)ethyl]acetamide]
number of marbles buried ([1]; 10 mg/kg intraperitoneal, n=6): 19.2±1.3
number of marbles buried ([1]; 40 mg/kg intraperitoneal, n=6, P<0.05 vs carrier): 15.3±3.0
number of marbles buried ([1]; 80 mg/kg intraperitoneal, n=5, P<0.05 vs carrier): 4.6±1.9
effect on spontaneous marble burying (in words) ([1]; intraperitoneal, doses of 10, 40 and 80 mg/kg): greatly reduced spontaneous marble burying in mice in dose-dependent manner; also recorded: statistically significant activity
efficacy in the treatment of Obsessive-Compulsive Disorder (in words) ([2]; possibly increased to 50 mg after 8 weeks, versus placebo, 80 out-patients): confirm the efficacy
acceptability profile (in words) ([2]; possibly increased to 50 mg): good acceptability profile
tolerability (in words) ([3]; clinical trials on close to 3900 patients): excellent tolerability
discontinuation syndrome on stopping treatment ([3]; compared with the customary psychotropic agents): absent
